Assay type in all cases: cell-based
One assay relates to M. pneumoniae ATCC 15492. Put plainly: Anti-mycoplasmal MIC in vitro, Friis broth agarose (Table 1). Particulars: Mycoplasmoides pneumoniae, ATCC15492, 144 h.
In assay [1] the test system is Treponema hyodysenteriae B10. In words: MIC against Treponema hyodysenteriae, horse blood agar (Table 4). The following applies: Brachyspira hyodysenteriae, 48 h; strain B10; 2 days 37° C. anaerobic; read-out: Minimum Inhibitory Concentration (MIC), inhibition of β-haemolysis. As to the method:
(§1) The value were obtained by the following method: The compound was incorporated in horse blood agar, inoculated (multi-point)with 0.001 ml of a 3 day growth of the test organism from base of a blood slope (+1 ml foetal calf serum) and incubated at 37° C. for 2 days under anaerobic conditions. The MIC was taken as the lowest concentration to inhibit β-haemolysis.

The subject of assay [2] is Treponema hyodysenteriae Navis. Described as above. The following applies: Brachyspira hyodysenteriae, 48 h; strain Navis; 2 days 37° C. anaerobic; read-out: Minimum Inhibitory Concentration (MIC), inhibition of β-haemolysis. The procedure: as §1
Assay [3] relates to Treponema hyodysenteriae S77/10. The description is as above. Particulars: Brachyspira hyodysenteriae, 48 h; strain S77/10; 2 days 37° C. anaerobic; read-out: Minimum Inhibitory Concentration (MIC), inhibition of β-haemolysis. The procedure:
as §1

In assay [4] the test system is Treponema hyodysenteriae P23. Described as above. Particulars: Brachyspira hyodysenteriae, 48 h; strain P23; 2 days 37° C. anaerobic; read-out: Minimum Inhibitory Concentration (MIC), inhibition of β-haemolysis. The procedure:
as §1

Assay [5] concerns Treponema hyodysenteriae S77/2. Described as above. Particulars: Brachyspira hyodysenteriae, 48 h; strain S77/2; 2 days 37° C. anaerobic; read-out: Minimum Inhibitory Concentration (MIC), inhibition of β-haemolysis. The procedure: as §1
A further assay has as its system bacteria. In words: Antibacterial activity (summary). Particulars: in words. The procedure:
The values were determined using a two fold serial dilutions in Diagnostic Sensitivity Test Agar with an inoculum of 10^4 organisms and incubation for 18 hours at 37° C.
(§2) The values were determined by serial dilutions in nutrient agar with 5% chocolated horse blood after incubations for 18 hours at 37° C.

A further assay concerns M1 -suiphneumoniae. In words: Anti-mycoplasmal activity relative to O-nitrobenzyl monate A.
Another assay deals with mycoplasma organisms. Put plainly: Anti-mycoplasmal activity (summary). The following applies: in words. The procedure: The values were determines in Friis broth solidified with 0.9% agarose. The inoculum was 10^3 to 10^5 C.F.U. and the MIC's were recorded after 6 days incubation at 37° C.
Assay [6] has as its system Haemophilus influenzae Wy21. Put plainly: Human bacteria MIC, nutrient agar with chocolated horse blood (Table 3). Particulars: nutrient agar 5% chocolated horse blood, 18 hours 37° C. The procedure: as §2
Setting [7] is: M. pneumoniae ATCC 15492, in vitro, 6 days 37° C., read-out: MIC.

Each structure is given as a SMILES string. ≈ marks a conversion by molar mass, not a printed value. Read-outs that look alike come from different tables or passages of the source.

Regarding `C/C(=C\C(=O)OCc1ccccc1[N+](=O)[O-])CC1OCC(CC2OC2C(C)C(C)O)C(O)C1O` (stereo not drawn) [C, O--nitrobenzyl monate A, reference compound], the MIC in the assay with M. pneumoniae ATCC 15492 (setting [7]) turned out to be 5 µg/mL (≈ 10.4 µM).

In the case of `C/C(=C\C(=O)OCc1ccc([N+](=O)[O-])cc1)CC1OCC(CC2OC2C(C)C(C)O)C(O)C1O` (stereo not drawn) [Example 1, p-nitrobenzyl monate A], the MIC in [1] is 2.5 µg/mL (≈ 5.21 µM); in assay [2] it was 2.5 µg/mL (≈ 5.21 µM); in assay [3], 2.5 µg/mL (≈ 5.21 µM); in [4], 2.5 µg/mL (≈ 5.21 µM); in assay [5], 2.5 µg/mL (≈ 5.21 µM); in the assay on M. pneumoniae ATCC 15492 (setting [7]), 0.1 µg/mL (≈ 0.209 µM). Further, the “antibacterial activity as compared to o-nitrobenzyl monate A” value in the assay with bacteria is “outstanding antibacterial activity”.

For `C/C(=C\C(=O)OCc1cccc([N+](=O)[O-])c1)CC1OCC(CC2OC2C(C)C(C)O)C(O)C1O` (stereo not drawn) [Example 2, m-nitrobenzyl monate A], the “times more active than O-nitrobenzyl monate A” value in the assay with M1 -suiphneumoniae is given as “approximately 20 times”. Besides, in the assay on mycoplasma organisms, the anti-mycoplasmal activity entry was “outstanding anti-mycoplasmal activity”. The MIC in the assay with M. pneumoniae ATCC 15492 (setting [7]) was 1 µg/mL (≈ 2.09 µM).

`C/C(=C\C(=O)OC(C)c1cccc([N+](=O)[O-])c1)CC1OCC(CC2OC2C(C)C(C)O)C(O)C1O` (stereo not drawn) [Example 3, 1-(m-nitrophenyl)ethyl monate A] returned an MIC against M. pneumoniae ATCC 15492 of 5 µg/mL (≈ 10.1 µM).

`C/C(=C\C(=O)OC(C)c1ccc([N+](=O)[O-])cc1)CC1OCC(CC2OC2C(C)C(C)O)C(O)C1O` (stereo not drawn) [Example 4, 1-(p-nitrophenyl)ethyl monate A]: in the assay with M. pneumoniae ATCC 15492 (setting [7]), the MIC came to 10 µg/mL (≈ 20.3 µM).

For the compound `C/C(=C\C(=O)OCc1cc([N+](=O)[O-])cc([N+](=O)[O-])c1)CC1OCC(CC2OC2C(C)C(C)O)C(O)C1O` (stereo not drawn) [Example 6, 3,5-dinitrobenzyl monate A], the MIC in [6] came out at 0.5 µg/mL (≈ 0.953 µM); with M. pneumoniae ATCC 15492, 2.5 µg/mL (≈ 4.77 µM).

With `C/C(=C\C(=O)OCc1cc([N+](=O)[O-])cc([N+](=O)[O-])c1C)CC1OCC(CC2OC2C(C)C(C)O)C(O)C1O` (stereo not drawn) [Example 7, 3,5-dinitro-2-methylbenzyl monate A], the MIC in [6] was 1 µg/mL (≈ 1.86 µM); with M. pneumoniae ATCC 15492 it was 2.5 µg/mL (≈ 4.64 µM).

In assay [6], `C/C(=C\C(=O)OCc1ccc([N+](=O)[O-])c([N+](=O)[O-])c1)CC1OCC(CC2OC2C(C)C(C)O)C(O)C1O` (stereo not drawn) [Example 9, 3,4-dinitrobenzyl monate A] yielded an MIC of 0.25 µg/mL (≈ 0.477 µM).

As for `C/C(=C\C(=O)OCc1ccc([N+](=O)[O-])cc1[N+](=O)[O-])CC1OCC(CC2OC2C(C)C(C)O)C(O)C1O` (stereo not drawn) [Example 10, 2,4-dinitrobenzyl monate A], the results for the MIC (in assay [6]; against M. pneumoniae ATCC 15492) were 0.5 µg/mL (≈ 0.953 µM) and 2.5 µg/mL (≈ 4.77 µM), respectively.

The compound `C/C(=C\C(=O)OCc1ccc([N+](=O)[O-])cc1Cl)CC1OCC(CC2OC2C(C)C(C)O)C(O)C1O` (stereo not drawn) [Example 11, 2-chloro-4-nitrobenzyl monate A] came in with an MIC with M. pneumoniae ATCC 15492 of 2.5 µg/mL (≈ 4.86 µM).

(Values after US4436751A, “Nitrobenzyl monates antibacterial compounds” (Beecham Group Limited, priority 1980, dated 1984).)
